The text below walks through data of US20260242395A1, “AMINOHETEROARYL KINASE INHIBITORS” (ALLORION THERAPEUTICS INC, priority 2022, published 2026).

Assay type in all cases: biochemical
One experiment deals with T1, CDK9/CyclinT1 (Homo sapiens, UniProt P50750).
T1 construct: purchased Millipore 14-685M
The experiment can be described thus: CDK9/CyclinT1 kinase inhibitory activity (Caliper mobility shift). The following applies: enzyme 12.5 nM, ATP 10M, 28° C. 30 min; read-out: CDK9/Cyclin T1 IC50. How it is done:
(§1) CDK9/CyclinT1 kinase inhibitory activity (IC50): 5 μl of various dilutions of test compound in 1× kinase buffer (20 mM HEPES, pH 7.5, 10 mM MgCl2, 2 mM DTT and 0.01% Triton X-100) was mixed with 10 μL of CDK9/CyclinT1 (Millipore, 14-685M #, final concentration 12.5 nM in 1× Kinase buffer) in 384 plates and incubated at room temperature for 10 min. To initiate each reaction, 10 μL of peptide solution containing fluorescently-labeled -peptide CTD3 (5-FAM-[…], GL, SY346885 #, final concentration 3000 nM) and ATP (final concentration 10M) in 1× Kinase buffer was added to each of the wells containing test compound and CDK9/CyclinT1 mixture. The reaction is then allowed to proceed at 28° C. for 30 min and terminated by the addition of 25 μL stop buffer (100 mM HEPES pH 7.5, 50 mM EDTA, 0.2% Coating Reagent #3 (Perkin Elmer, 760050 #) and 0.015% Brij-35).
(§2) Following the kinase reaction, Caliper EZ reader II (Downstream voltages: −500V, Upstream voltages: −2250V, Base pressure −0.5 PSI, Screen pressure −1.2 PSI) was used to separate the phosphorylated (product) and the unphosphorylated (substrate) fluorescently-labeled peptide CTD3 based on their different mobility. Both substrate and product were measured and the ratio of these values were used to generate % conversion by Caliper EZ reader II. These conversion values were then transformed into % inhibition of kinase activity using the formula: % Inhibition=[(MA−X)/(MA−MI)]×100% where MA=conversion value of DMSO only controls, MI=conversion value of no enzyme controls and X=conversion value at any given compound dose. IC50 values were then calculated by plotting dose-response curves and then using the XLfit application in Excel software.

Another experiment addresses T2, CDK7/CyclinH/MAT1 (Homo sapiens, UniProt P50613).
T2 construct: purchased Millipore 14-476M
The experiment is described as follows: CDK7/CyclinH/MAT1 kinase inhibitory activity (Caliper mobility shift). The following applies: enzyme 12.5 nM, ATP 70 μM, 28° C. 30 min; read-out: CDK7/Cyclin H/MAT1 IC50. How it is done: as §1, with “CDK7/CyclinH/MAT1” for “CDK9/CyclinT1”, “14-476M” for “14-685M”, “fluorescently-labeled-peptide” for “fluorescently-labeled -peptide”, “70 μM)” for “10M)”
as §2, with “the phosphoiylated” for “the phosphorylated”

The target in the next experiment is T3, CDK6/CyclinD3 (Homo sapiens, UniProt Q00534).
T3 construct: purchased Carna 04-107
The experiment can be described thus: CDK6/CyclinD3 kinase inhibitory activity (Caliper mobility shift). The following applies: enzyme 15 nM, ATP 800 μM, 28° C. 30 min; read-out: CDK6/Cyclin D3 IC50. In a few lines: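 Compound preincubated 10 min at room temperature with CDK6/CyclinD3 (15 nM final) in HEPES pH 7.5/MgCl2/DTT buffer; reaction with 5-FAM peptide (3000 nM) and ATP 800 μM, 30 min at 28°C, stopped with EDTA. Substrate/product separated by microfluidic mobility shift; % conversion converted to % inhibition, IC50 from dose-response curves.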

T2 sequence (P50613 whole entry): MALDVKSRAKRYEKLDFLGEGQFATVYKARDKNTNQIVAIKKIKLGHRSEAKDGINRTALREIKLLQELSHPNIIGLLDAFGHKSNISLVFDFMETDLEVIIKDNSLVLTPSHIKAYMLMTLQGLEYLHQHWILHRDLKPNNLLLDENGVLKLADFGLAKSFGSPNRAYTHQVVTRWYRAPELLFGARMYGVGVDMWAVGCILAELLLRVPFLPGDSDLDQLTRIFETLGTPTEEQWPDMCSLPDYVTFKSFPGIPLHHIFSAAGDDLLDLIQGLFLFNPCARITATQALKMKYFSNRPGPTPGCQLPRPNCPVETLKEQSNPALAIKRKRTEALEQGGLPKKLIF
T2 sequence (P51946 whole entry partner): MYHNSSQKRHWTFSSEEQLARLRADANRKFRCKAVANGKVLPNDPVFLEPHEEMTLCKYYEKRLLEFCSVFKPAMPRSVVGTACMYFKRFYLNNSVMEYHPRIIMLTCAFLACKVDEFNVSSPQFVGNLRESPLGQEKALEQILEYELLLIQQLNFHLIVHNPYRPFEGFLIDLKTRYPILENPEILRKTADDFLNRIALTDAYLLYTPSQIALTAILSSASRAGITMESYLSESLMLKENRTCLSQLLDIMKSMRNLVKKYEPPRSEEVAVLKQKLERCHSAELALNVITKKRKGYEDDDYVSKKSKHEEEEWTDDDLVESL
T2 sequence (P51948 whole entry partner): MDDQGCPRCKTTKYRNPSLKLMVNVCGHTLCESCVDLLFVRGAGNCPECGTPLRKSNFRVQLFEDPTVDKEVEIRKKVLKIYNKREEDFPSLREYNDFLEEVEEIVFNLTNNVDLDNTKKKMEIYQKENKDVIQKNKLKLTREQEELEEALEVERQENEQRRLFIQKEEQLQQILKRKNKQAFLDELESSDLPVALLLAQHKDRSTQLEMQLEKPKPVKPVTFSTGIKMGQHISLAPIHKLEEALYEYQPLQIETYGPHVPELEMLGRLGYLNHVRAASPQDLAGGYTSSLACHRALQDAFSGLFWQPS
T3 sequence (Q00534 whole entry): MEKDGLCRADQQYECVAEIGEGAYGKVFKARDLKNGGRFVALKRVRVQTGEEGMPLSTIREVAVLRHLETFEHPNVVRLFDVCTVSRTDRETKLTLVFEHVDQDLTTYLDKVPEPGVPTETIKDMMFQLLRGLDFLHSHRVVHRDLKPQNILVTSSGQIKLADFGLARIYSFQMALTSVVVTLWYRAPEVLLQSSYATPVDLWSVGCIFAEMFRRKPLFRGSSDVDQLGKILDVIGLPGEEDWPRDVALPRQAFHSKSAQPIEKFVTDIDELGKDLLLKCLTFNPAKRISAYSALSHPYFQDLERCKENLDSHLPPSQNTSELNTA
T3 sequence (P30281 whole entry partner): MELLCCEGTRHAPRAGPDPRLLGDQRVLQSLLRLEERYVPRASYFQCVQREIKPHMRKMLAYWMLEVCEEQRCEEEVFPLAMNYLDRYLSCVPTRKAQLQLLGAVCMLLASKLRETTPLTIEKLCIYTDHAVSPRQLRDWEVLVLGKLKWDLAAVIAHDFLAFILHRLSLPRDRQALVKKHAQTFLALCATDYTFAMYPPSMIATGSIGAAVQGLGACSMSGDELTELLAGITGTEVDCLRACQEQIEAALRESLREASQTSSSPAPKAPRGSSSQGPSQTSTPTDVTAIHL
T1 sequence (P50750 whole entry): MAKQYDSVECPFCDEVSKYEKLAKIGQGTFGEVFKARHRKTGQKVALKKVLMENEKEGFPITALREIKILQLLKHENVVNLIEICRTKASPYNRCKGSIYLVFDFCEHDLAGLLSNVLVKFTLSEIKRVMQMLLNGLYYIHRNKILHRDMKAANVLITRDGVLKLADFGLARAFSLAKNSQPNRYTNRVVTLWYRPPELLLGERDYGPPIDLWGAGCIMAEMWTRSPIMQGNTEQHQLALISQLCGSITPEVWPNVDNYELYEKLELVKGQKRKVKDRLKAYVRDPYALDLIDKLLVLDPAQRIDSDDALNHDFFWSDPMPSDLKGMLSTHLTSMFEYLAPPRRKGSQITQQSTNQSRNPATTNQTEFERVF
T1 sequence (O60563 whole entry partner): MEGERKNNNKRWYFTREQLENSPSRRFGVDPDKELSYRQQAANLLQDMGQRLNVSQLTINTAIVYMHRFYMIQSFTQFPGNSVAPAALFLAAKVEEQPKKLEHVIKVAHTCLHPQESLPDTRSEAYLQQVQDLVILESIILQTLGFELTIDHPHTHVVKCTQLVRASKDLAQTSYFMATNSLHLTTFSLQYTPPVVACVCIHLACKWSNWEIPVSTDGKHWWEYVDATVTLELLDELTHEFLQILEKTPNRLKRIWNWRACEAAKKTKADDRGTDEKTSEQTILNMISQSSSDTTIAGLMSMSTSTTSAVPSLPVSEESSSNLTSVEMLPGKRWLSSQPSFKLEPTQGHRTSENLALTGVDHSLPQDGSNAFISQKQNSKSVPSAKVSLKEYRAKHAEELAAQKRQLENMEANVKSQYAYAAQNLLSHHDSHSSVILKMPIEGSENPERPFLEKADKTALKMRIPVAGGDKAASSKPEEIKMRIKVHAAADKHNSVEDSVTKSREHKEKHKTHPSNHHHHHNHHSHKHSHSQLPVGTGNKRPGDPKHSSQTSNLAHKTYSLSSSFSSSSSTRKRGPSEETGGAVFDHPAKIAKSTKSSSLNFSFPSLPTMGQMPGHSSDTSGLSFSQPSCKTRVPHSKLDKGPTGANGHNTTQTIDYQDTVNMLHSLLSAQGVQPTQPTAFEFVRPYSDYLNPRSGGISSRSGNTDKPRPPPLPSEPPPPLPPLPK

For the compound `CC(C)(O)c1cnc2c(F)cc(-c3nc(N[C@@H]4CCOC[C@H]4O)ncc3Cl)cc2c1Cl` [Example 17, (3S,4R)-4-((5-chloro-4-(4-chloro-8-fluoro-3-(2-hydroxypropan-2-yl)quinolin-6-yl)pyrimidin-2-yl)amino)tetrahydro-2H-pyran-3-ol], the results for the IC50 at CDK9/CyclinT1, on CDK7/CyclinH/MAT1 and at CDK6/CyclinD3 were 100 to 1000 nM, not below 1000 nM and 10 to 100 nM, respectively.
For the compound `[2H]C([2H])([2H])C(O)(c1cc2cc(-c3nc(N[C@@H]4CCOC[C@H]4O)ncc3Cl)cc(F)c2nc1C)C([2H])([2H])[2H]` [Example 60, (3S,4R)-4-((5-chloro-4-(8-fluoro-3-(2-hydroxypropan-2-yl-1,1,1,3,3,3-d6)-2-methylquinolin-6-yl)pyrimidin-2-yl)amino)tetrahydro-2H-pyran-3-ol], the IC50 was 100 to 1000 nM on CDK9/CyclinT1, not below 1000 nM at CDK7/CyclinH/MAT1 and 100 to 1000 nM at CDK6/CyclinD3.
Take `CC(O)c1cnc2c(F)cc(-c3nc(N[C@@H]4CCOC[C@H]4O)ncc3Cl)cc2c1Cl` (single isomer, unassigned) [Example 40a]: the IC50 on CDK9/CyclinT1, at CDK7/CyclinH/MAT1 and at CDK6/CyclinD3 was 100 to 1000 nM in each case.
As to `[2H]c1nc(N[C@@H]2CCOC[C@H]2O)nc(-c2cc(F)c3nc(C)c(C(C)(C)O)cc3c2)c1F` [Example 83], the IC50 at CDK9/CyclinT1, on CDK7/CyclinH/MAT1 and on CDK6/CyclinD3 was 100 to 1000 nM throughout.
As for `CNC(C)c1cnc2c(F)cc(-c3nc(N[C@@H]4CCOC[C@H]4O)ncc3Cl)cc2c1` (single isomer, unassigned) [Example 32a], the values for the IC50 on CDK9/CyclinT1, on CDK7/CyclinH/MAT1 and at CDK6/CyclinD3 were 100 to 1000 nM, not below 1000 nM and 100 to 1000 nM, respectively.
Consider `CC(C)(O)c1cnc2c(F)cc(-c3nc(N[C@@H]4CCOC[C@H]4O)ncc3C#N)cc2c1Cl` [Example 41], for which the IC50 was not below 1000 nM on CDK9/CyclinT1, not below 1000 nM at CDK7/CyclinH/MAT1 and 10 to 100 nM on CDK6/CyclinD3.
